Laboratory results: patent US10750743B2, “Pyridazinone herbicides” (E.I. DU PONT DE NEMOURS AND COMPANY, priority 2015, dated 2020)

Key:
Format in all cases: in vivo
[1] = test system: barnyardgrass (Echinochloa crus-galli); experiment: Test A preemergence, directed soil spray, visual injury rating; details: 0 is no effect, 100 is complete control
Description: (§1) Seeds of plant species selected from barnyardgrass (Echinochloa crus-galli), kochia (Kochia scoparia), ragweed (common ragweed, Ambrosia elatior), ryegrass, It. (Italian ryegrass, Lolium multiflorum), foxtail, giant (giant foxtail, Setaria faberii), and pigweed (Amaranthus retroflexus), were planted into a blend of loam soil and sand and treated preemergence with a directed soil spray using test chemicals formulated in a non-phytotoxic solvent mixture which included a surfactant.
(§2) At the same time, plants selected from these weed species and also wheat (Triticum aestivum), corn (Zea mays), blackgrass (Alopecurus myosuroides), and galium (catchweed bedstraw, Galium aparine), were planted in pots containing the same blend of loam soil and sand and treated with postemergence applications of test chemicals formulated in the same manner Plants ranged in height from 2 to 10 cm and were in the one- to two-leaf stage for the postemergence treatment. Treated plants and untreated controls were maintained in a greenhouse for approximately 10 d, after which time all treated plants were compared to untreated controls and visually evaluated for injury. Plant response ratings, summarized in Table A, are based on a 0 to 100 scale where 0 is no effect and 100 is complete control. A dash (-) response means no test result.

[2] = test system: foxtail, giant (giant foxtail, Setaria faberii); experiment: as above; details: 0 is no effect, 100 is complete control
Description: as §1, §2

kochia (Kochia scoparia) [3] = experiment: as above; details: 0 is no effect, 100 is complete control
Description: as §1, §2

[4] = test system: pigweed (Amaranthus retroflexus); experiment: as above; details: 0 is no effect, 100 is complete control
Description: as §1, §2

[5] = test system: ragweed (common ragweed, Ambrosia elatior); experiment: as above; details: 0 is no effect, 100 is complete control
Description: as §1, §2

[6] = test system: ryegrass, It. (Italian ryegrass, Lolium multiflorum); experiment: as above; details: 0 is no effect, 100 is complete control
Description: as §1, §2

[7] = test system: barnyardgrass (Echinochloa crus-galli); experiment: Test A postemergence application, visual injury rating; details: 0 to 100 scale, 0 no effect, 100 complete control
Description: as §1, §2

[8] = test system: blackgrass (Alopecurus myosuroides); experiment: as above; details: 0 to 100 scale, 0 no effect, 100 complete control
Description: as §1, §2

corn (Zea mays) = experiment: as above; details: 0 to 100 scale, 0 no effect, 100 complete control
Description: as §1, §2

[9] = test system: foxtail, giant (giant foxtail, Setaria faberii); experiment: as above; details: 0 to 100 scale, 0 no effect, 100 complete control
Description: as §1, §2

[10] = test system: galium (catchweed bedstraw, Galium aparine); experiment: as above; details: 0 to 100 scale, 0 no effect, 100 complete control
Description: as §1, §2

kochia (Kochia scoparia) [11] = experiment: as above; details: 0 to 100 scale, 0 no effect, 100 complete control
Description: as §1, §2

[12] = test system: pigweed (Amaranthus retroflexus); experiment: as above; details: 0 to 100 scale, 0 no effect, 100 complete control
Description: as §1, §2

[13] = test system: ragweed (common ragweed, Ambrosia elatior); experiment: as above; details: 0 to 100 scale, 0 no effect, 100 complete control
Description: as §1, §2

[14] = test system: ryegrass, It. (Italian ryegrass, Lolium multiflorum); experiment: as above; details: 0 to 100 scale, 0 no effect, 100 complete control
Description: as §1, §2

[15] = test system: wheat (Triticum aestivum); experiment: as above; details: 0 to 100 scale, 0 no effect, 100 complete control
Description: as §1, §2

SMILES	Plant response rating (0 to 100 scale), Barnyardgrass ([1]; 125 g ai/ha)	Plant response rating (0 to 100 scale), Barnyardgrass ([1]; 500 g ai/ha)	Plant response rating (0 to 100 scale), Foxtail, Giant ([2]; 125 g ai/ha)	Plant response rating (0 to 100 scale), Foxtail, Giant ([2]; 500 g ai/ha)	Plant response rating (0 to 100 scale), Kochia (kochia (Kochia scoparia) [3]; 125 g ai/ha)	Plant response rating (0 to 100 scale), Kochia (kochia (Kochia scoparia) [3]; 500 g ai/ha)	Plant response rating (0 to 100 scale), Pigweed ([4]; 125 g ai/ha)	Plant response rating (0 to 100 scale), Pigweed ([4]; 500 g ai/ha)	Plant response rating (0 to 100 scale), Ragweed ([5]; 125 g ai/ha)	Plant response rating (0 to 100 scale), Ragweed ([5]; 500 g ai/ha)	Plant response rating (0 to 100 scale), Ryegrass, It. ([6]; 125 g ai/ha)	Plant response rating (0 to 100 scale), Ryegrass, It. ([6]; 500 g ai/ha)	Barnyardgrass plant response rating ([7]; 125 g ai/ha)	Barnyardgrass plant response rating ([7]; 500 g ai/ha)	Blackgrass plant response rating ([8]; 125 g ai/ha)	Blackgrass plant response rating ([8]; 500 g ai/ha)	Corn plant response rating (corn (Zea mays); 125 g ai/ha)	Corn plant response rating (corn (Zea mays); 500 g ai/ha)	Foxtail, Giant plant response rating ([9]; 125 g ai/ha)	Foxtail, Giant plant response rating ([9]; 500 g ai/ha)	further results
CCOC(=O)Oc1c(C)nn(C)c(=O)c1-c1c(C)sc2ncc(C)cc12 [Compound 2]	0	20	0	20	0	60	0	80	0	20	30	100	0	20	20	40	0	0	0	20	Galium plant response rating ([10]; 125 g ai/ha): 40; Galium plant response rating ([10]; 500 g ai/ha): 80; Kochia plant response rating (kochia (Kochia scoparia) [11]; 125 g ai/ha): 30; Kochia plant response rating (kochia (Kochia scoparia) [11]; 500 g ai/ha): 90; Pigweed plant response rating ([12]; 125 g ai/ha): 70; Pigweed plant response rating ([12]; 500 g ai/ha): 90; Ragweed plant response rating ([13]; 125 g ai/ha): 20; Ragweed plant response rating ([13]; 500 g ai/ha): 50; Ryegrass, It. plant response rating ([14]; 125 g ai/ha): 30; Ryegrass, It. plant response rating ([14]; 500 g ai/ha): 90; Wheat plant response rating ([15]; 125 g ai/ha): 0; Wheat plant response rating ([15]; 500 g ai/ha): 20
Cc1cnc2sc(C)c(-c3c(O)c(C)nn(C)c3=O)c2c1 [Compound 3]	0	10	0	10	0	20	40	80	0	40	30	70	0	30	20	40	0	0	0	30	Galium plant response rating ([10]; 125 g ai/ha): 30; Galium plant response rating ([10]; 500 g ai/ha): 80; Kochia plant response rating (kochia (Kochia scoparia) [11]; 125 g ai/ha): 30; Kochia plant response rating (kochia (Kochia scoparia) [11]; 500 g ai/ha): 90; Pigweed plant response rating ([12]; 125 g ai/ha): 80; Pigweed plant response rating ([12]; 500 g ai/ha): 90; Ragweed plant response rating ([13]; 125 g ai/ha): 20; Ragweed plant response rating ([13]; 500 g ai/ha): 50; Ryegrass, It. plant response rating ([14]; 125 g ai/ha): 20; Ryegrass, It. plant response rating ([14]; 500 g ai/ha): 80; Wheat plant response rating ([15]; 125 g ai/ha): 0; Wheat plant response rating ([15]; 500 g ai/ha): 20
CCC(=O)Oc1c(C)nn(C)c(=O)c1-c1cccc2sccc12 [Compound 4]	0	20	0	20	0	60	40	70	0	20	40	100	0	20	20	30	0	0	0	20	Galium plant response rating ([10]; 125 g ai/ha): 70; Galium plant response rating ([10]; 500 g ai/ha): 90; Kochia plant response rating (kochia (Kochia scoparia) [11]; 125 g ai/ha): 0; Kochia plant response rating (kochia (Kochia scoparia) [11]; 500 g ai/ha): 20; Pigweed plant response rating ([12]; 125 g ai/ha): 20; Pigweed plant response rating ([12]; 500 g ai/ha): 30; Ragweed plant response rating ([13]; 125 g ai/ha): 0; Ragweed plant response rating ([13]; 500 g ai/ha): 40; Ryegrass, It. plant response rating ([14]; 125 g ai/ha): 80; Ryegrass, It. plant response rating ([14]; 500 g ai/ha): 100; Wheat plant response rating ([15]; 125 g ai/ha): 0; Wheat plant response rating ([15]; 500 g ai/ha): 0
